The source of these data is patent US20150274751A1, “TREATMENT OF S[…] AN INHIBITOR OF CBP/CATENIN” (PRISM Pharma Co., Ltd., priority 2012, published 2015).

Data set [1] is described as follows: body weight in bleomycin-injected mice. Type of data set: in vivo, female C3H/HeJ inbred mice (Mus musculus). Conditions: Group 4: bleomycin plus DEX 1 mg/kg IP BID; differences among groups at sacrifice not significant (P>0.05). How it is done:
Dermal fibrosis was induced locally by six weeks of once-daily subcutaneous injections of bleomycin (0.1 U in 0.1 mL) into a defined area on the back of each mouse. Test and control articles were administered by twice-daily intraperitoneal injection starting from Day 14 (i.e., two weeks after the initiation of bleomycin injection). For mice of Groups 1-4, test/control article were administered (BID, IP) for four weeks, starting from Day 14 (i.e., two weeks after the initial bleomycin injection) administration was performed twice daily. Group 1 received negative control article (PBS) at 200 μL/mouse. Groups 2 and 3 received low- and high-dose test article dosing solutions (0.05 and 0.5 mg/mL Compound A) at doses of 0.5 and 5 mg/kg, respectively. Group 4 received DEX dosing solution (1 mg/mL) at doses of 1 mg/kg. For animals of Groups 2-4, doses were administered at dose volumes of 10 mL/kg, and dose volumes for individual animals were recalculated once weekly based on the most recent body weights. Animals were administered bleomycin and test and control articles in two cohorts, with dosing staggered by one day. Cohort A was composed of the first five animals in each group [x01-x05, where x denoted the study group number (1, 2, 3, or 4)]. Cohort B was composed of the remaining animals (x06-x10). […]

Data set [2] deals with bleomycin-induced dermal fibrosis. Put plainly: murine model of bleomycin-induced dermal fibrosis (histopathology scores). In kind it is in vivo, female C3H/HeJ inbred mice (Mus musculus). The source says: The objective of this study was to assess the effects of the test article Compound A, an alpha helix mimetic β-catenin inhibitor compound, in a murine model of bleomycin-induced dermal fibrosis. Compound A is 4-(((6S,9S,9aS)-1-(benzylcarbamoyl)-2,9-dimethyl-4,7-dioxo-8-(quinolin-8-ylmethyl)octahydro-1H-pyrazino[2,1-c][1,2,4]triazin-6-yl)methyl)phenyl dihydrogen phosphate. Negative and positive control articles were phosphate buffered saline (PBS) and dexamethasone (DEX, a known treatment for scleroderma), respectively.
The high-dose (0.5 mg/mL) dosing solution of test article was prepared by mixing 4 mL of test article (stock solution at […]) with 36 mL of PBS. The low-dose (0.05 mg/mL) dosing solution was prepared by mixing 4 mL of the high-dose test article dosing solution (0.5 mg/mL) with 36 mL of PBS. The DEX dosing solution (1 mg/mL) was prepared by mixing 1 mL of the DEX stock solution (3 mg/mL) with 2 mL of PBS. The test and positive control articles were prepared once weekly, aliquoted and stored at 4° C. protected from light.
Forty-five female C3H/HeJ inbred mice (Mus musculus) at ages of approximately 6 weeks were obtained from Jackson Laboratory (Bar Harbor, Me.) for use in the study. Mice were selected for the study since these animals are an accepted species frequently used in pre-clinical evaluation of drugs intended for human use.
Dermal fibrosis was induced locally by six weeks of once-daily subcutaneous injections of bleomycin (0.1 U in 0.1 mL) into a defined area on the back of each mouse. Test and control articles were administered by twice-daily intraperitoneal injection starting from Day 14 (i.e., two weeks after the initiation of bleomycin injection). For mice of Groups 1-4, test/control article were administered (BID, IP) for four weeks, starting from Day 14 (i.e., two weeks after the initial bleomycin injection) administration was performed twice daily. Group 1 received negative control article (PBS) at 200 μL/mouse. Groups 2 and 3 received low- and high-dose test article dosing solutions (0.05 and 0.5 mg/mL Compound A) at doses of 0.5 and 5 mg/kg, respectively. Group 4 received DEX dosing solution (1 mg/mL) at doses of 1 mg/kg. […]
Mice were euthanized on Day 42, i.e., following six weeks of bleomycin injection and four weeks of test/control article treatment. A full gross necropsy was performed on each mouse, and any macroscopic abnormality was recorded. […]
Formalin-fixed skin and lung tissues from each mouse were processed for histopathology. […] Slides were evaluated for dermal fibrosis and dermal inflammation. […] Dermal fibrosis and inflammation were scored using the industry standard 5-point scoring system as follows: 0=no significant changes; 1=trace to minimal severity; 2=mild severity; 3=moderate severity; 4=marked severity. […]

For the molecule `C[C@@H]1C[C@H]2[C@@H]3CCC4=CC(=O)C=C[C@]4(C)[C@@]3(F)[C@@H](O)C[C@]2(C)[C@@]1(O)C(=O)CO` [DEX, dexamethasone], the “decrease in mean body weight” value in data set [1] is “largest decrease”.
In the case of `C[C@H]1[C@H]2N(C(=O)CN(C)N2C(=O)NCc2ccccc2)[C@@H](Cc2ccc(OP(=O)(O)O)cc2)C(=O)N1Cc1cccc2cccnc12` [Compound A, 4-(((6S,9S,9aS)-1-(benzylcarbamoyl)-2,9-dimethyl-4,7-dioxo-8-(quinolin-8-ylmethyl)octahydro-1H-pyrazino[2,1-c][1,2,4]triazin-6-yl)methyl)phenyl dihydrogen phosphate], the “dermal sclerosis scores vs vehicle-treated mice (FIG. 1)” value in data set [2] (Compound A at either dose (0.5 and 5 mg/kg IP BID Days 14-41), Day 42, P<0.01) is “significant decrease”. In addition, the “dermal fibrosis (summary)” value in data set [2] (bleomycin-injected mice, treatment IP BID Days 14-41) is listed as “ameliorated”. Moreover, the dermal inflammation scores entry in data set [2] (bleomycin-injected mice, Compound A 0.5 and 5 mg/kg IP BID Days 14-41, Day 42 histopathology, 0-4 score) is “did not significantly affect”. For the same molecule, in data set [2] (both test article-treated groups (0.5 and 5 mg/kg IP BID), Day 42), the “amount of dermal fibrosis (qualitative histopathology)” value is reported as “mildly reduce”.
